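Interpolation was linear, between the two tested concentrations surrounding the appropriate level; five concentrations were tested over 48 hours in 96-well plates. GI50 is the concentration that inhibits growth by half.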 Active and inactive are the calls of the source. Rule as the data show it: active = GI50 up to about 1.1 µM and inactive = higher.
What was measured:
Experiment in all cases: NCI tumour cell line growth inhibition, 48 h
[1] = system: BT-549
[2] = system: NCI/ADR-RES
[3] = system: NCI-H226
[4] = system: SNB-75
[5] = system: RXF 393
[6] = system: MDA-MB-435
[7] = system: SK-MEL-5
[8] = system: EKVX
[9] = system: KM12
[10] = system: Hs-578T
[11] = system: HCT-15
[12] = system: NCI-H460
[13] = system: LOX IMVI
[14] = system: UO-31
[15] = system: MDA-MB-231
[16] = system: NCI-H522
[17] = system: A549
[18] = system: RPMI-8226
[19] = system: PC-3

Compound	GI50 [1]	GI50 [2]	GI50 [3]	GI50 [4]	GI50 [5]	GI50 [6]	GI50 [7]	GI50 [8]	GI50 [9]	GI50 [10]	GI50 [11] [µM]	GI50 [12]	GI50 [13]	GI50 [14]	GI50 [15]	GI50 [16]	GI50 [17]	GI50 [18]	GI50 [19]
COc1ccc2oc(=N)c(C(=O)Nc3ccccc3)cc2c1	17.7 µM (inactive)	16.9 µM (inactive)	31.1 µM (inactive)	10.4 µM (inactive)	17.3 µM (inactive)	15.3 µM (inactive)	25.8 µM (inactive)	26.8 µM (inactive)	24.7 µM (inactive)	15 µM (inactive)	31	45.5 µM (inactive)	31.6 µM (inactive)	45 µM (inactive)	23.4 µM (inactive)	2.58 µM (inactive)	34.3 µM (inactive)	15.7 µM (inactive)	32.9 µM (inactive)
CC(C)=CCC[C@]1(C)CC[C@]2(C)C3CCC(=C(C)C)[C@@H](CCCO)[C@]3(C)CC[C@@]2(C)C1 (some centres not stated)	> 100 µM (inactive)	> 100 µM (inactive)	> 100 µM (inactive)	0.0243 µM (active)	–	> 100 µM (inactive)	> 100 µM (inactive)	46.5 µM (inactive)	57.9 µM (inactive)	> 100 µM (inactive)	34	54.1 µM (inactive)	–	16.9 µM (inactive)	29.8 µM (inactive)	17.8 µM (inactive)	52.6 µM (inactive)	26.5 µM (inactive)	35.1 µM (inactive)
Clc1ccc(CCN[C@H]2CCCC[C@H]2N2CCCC2)cc1Cl	26.2 µM (inactive)	21.4 µM (inactive)	21.1 µM (inactive)	–	–	18.5 µM (inactive)	14.6 µM (inactive)	57.8 µM (inactive)	17.2 µM (inactive)	39.6 µM (inactive)	9.59	14.9 µM (inactive)	16 µM (inactive)	13.6 µM (inactive)	25.6 µM (inactive)	17.3 µM (inactive)	26.4 µM (inactive)	25.2 µM (inactive)	27.9 µM (inactive)
N#Cc1nc(CCN2C(=O)c3ccccc3C2=O)oc1N	> 100 µM (inactive)	> 100 µM (inactive)	> 100 µM (inactive)	< 0.01 µM (active)	> 100 µM (inactive)	> 100 µM (inactive)	> 100 µM (inactive)	> 100 µM (inactive)	4.45 µM (inactive)	> 100 µM (inactive)	> 100	> 100 µM (inactive)	> 100 µM (inactive)	> 100 µM (inactive)	> 100 µM (inactive)	> 100 µM (inactive)	> 100 µM (inactive)	> 100 µM (inactive)	> 100 µM (inactive)
O=c1ccc2c(Cl)sc(Cl)c2[nH]1	> 100 µM (inactive)	> 100 µM (inactive)	–	> 100 µM (inactive)	> 100 µM (inactive)	> 100 µM (inactive)	–	98.4 µM (inactive)	> 100 µM (inactive)	35.2 µM (inactive)	> 100	> 100 µM (inactive)	> 100 µM (inactive)	> 100 µM (inactive)	> 100 µM (inactive)	92.9 µM (inactive)	> 100 µM (inactive)	> 100 µM (inactive)	> 100 µM (inactive)
CC1Cc2c(Br)nc(N)nc2NC1=O (configuration not stated)	> 100 µM (inactive)	> 100 µM (inactive)	> 100 µM (inactive)	> 100 µM (inactive)	–	> 100 µM (inactive)	> 100 µM (inactive)	> 100 µM (inactive)	> 100 µM (inactive)	> 100 µM (inactive)	> 100	> 100 µM (inactive)	> 100 µM (inactive)	> 100 µM (inactive)	> 100 µM (inactive)	> 100 µM (inactive)	> 100 µM (inactive)	> 100 µM (inactive)	> 100 µM (inactive)

Source: ChEMBL document CHEMBL1201862, “PubChem BioAssay data set” (2004)
